Values of other authors in patent publication US20120149888A1, “SYNTHESIS OF ARA-2'-O-METHYL-NUCLEOSIDES, CORRESPONDING PHOSPHORAMIDITES AND OLIGONUCLEOTIDES INCORPORATING NOVEL MODIFICATIONS FOR BIOLOGICAL APPLICATION IN THERAPEUCTICS, DIAGNOSTICS, G- TETRAD FORMING OLIGONUCLEOTIDES AND APTAMERS” (priority 2009, published 2012).

What was measured:
[1] = tested on: ara-C-resistant neoplasms; conditions: several other ara-C-resistant neoplasms
P815 = conditions: 1β-D-Arabinofuranosylcytosine-resistant P815
[2] = tested on: equilibrative NBMPR-sensitive nucleoside transporter (es); conditions: growth-inhibitory concentrations
[3] = tested on: explants of intact rat colonic mucosa
L1210/CA = conditions: 1β-D-Arabinofuranosylcytosine-resistant L1210/CA
L1210/ara-C = L1210/ara-C (Schabel et al., 1971)

## NC(=O)NO [hydroxyurea]
[1]
  cross-resistance of ara-C-resistant neoplasms to the drug: no cross-resistance
P815
  Response to chemotherapeutic drugs: Same as parent line: Hudroxyurea
[2]
  expression of es: increases
[3]
  incorporation of tritiated TdR into DNA: reduced
L1210/CA
  Response to chemotherapeutic drugs: Same as parent line: Hydroxyurea
L1210/ara-C
  Response to chemotherapeutic drugs: Same as parent line: Hydroxyurea
